In ChEMBL document CHEMBL4346703, “Structure Overhaul Affords a Potent Purine PI3Kδ Inhibitor with Improved Tolerability” (J Med Chem, 2019):

Columns and labels:
[1] = Inhibition of adenosine transporter in human HeLa cells assessed as reduction in [3H]adenosine uptake preincubated for 30 mins followed by [3H]adenosine addition and measured after 60 mins; format: ADME, cell-based
Homo sapiens = organism: Homo sapiens; test: Selectivity ratio of IC50 for N-terminal His6-tagged recombinant full length human p110alpha/untagged recombinant full length human p85alpha expressed in baculovirus infected Sf21 insect cells to IC50 for N-terminal His6-tagged recombinant full length human p110delta/untagged recombinant full length human p85alpha expressed in baculovirus infected Sf21 insect cells
[2] = molecular target: T1, Phosphatidylinositol 4,5-bisphosphate 3-kinase catalytic subunit delta isoform (Homo sapiens, UniProt O00329); test: Inhibition of PI3Kdelta in human Ramos cells assessed as reduction in anti-IgM-antibody-induced phosphorylation of AKT at Ser473 residue preincubated for 20 mins followed by anti-IgM antibody stimulation and measured after 30 mins by alphascreen assay; format: cell-based
T1 sequence (O00329 whole entry): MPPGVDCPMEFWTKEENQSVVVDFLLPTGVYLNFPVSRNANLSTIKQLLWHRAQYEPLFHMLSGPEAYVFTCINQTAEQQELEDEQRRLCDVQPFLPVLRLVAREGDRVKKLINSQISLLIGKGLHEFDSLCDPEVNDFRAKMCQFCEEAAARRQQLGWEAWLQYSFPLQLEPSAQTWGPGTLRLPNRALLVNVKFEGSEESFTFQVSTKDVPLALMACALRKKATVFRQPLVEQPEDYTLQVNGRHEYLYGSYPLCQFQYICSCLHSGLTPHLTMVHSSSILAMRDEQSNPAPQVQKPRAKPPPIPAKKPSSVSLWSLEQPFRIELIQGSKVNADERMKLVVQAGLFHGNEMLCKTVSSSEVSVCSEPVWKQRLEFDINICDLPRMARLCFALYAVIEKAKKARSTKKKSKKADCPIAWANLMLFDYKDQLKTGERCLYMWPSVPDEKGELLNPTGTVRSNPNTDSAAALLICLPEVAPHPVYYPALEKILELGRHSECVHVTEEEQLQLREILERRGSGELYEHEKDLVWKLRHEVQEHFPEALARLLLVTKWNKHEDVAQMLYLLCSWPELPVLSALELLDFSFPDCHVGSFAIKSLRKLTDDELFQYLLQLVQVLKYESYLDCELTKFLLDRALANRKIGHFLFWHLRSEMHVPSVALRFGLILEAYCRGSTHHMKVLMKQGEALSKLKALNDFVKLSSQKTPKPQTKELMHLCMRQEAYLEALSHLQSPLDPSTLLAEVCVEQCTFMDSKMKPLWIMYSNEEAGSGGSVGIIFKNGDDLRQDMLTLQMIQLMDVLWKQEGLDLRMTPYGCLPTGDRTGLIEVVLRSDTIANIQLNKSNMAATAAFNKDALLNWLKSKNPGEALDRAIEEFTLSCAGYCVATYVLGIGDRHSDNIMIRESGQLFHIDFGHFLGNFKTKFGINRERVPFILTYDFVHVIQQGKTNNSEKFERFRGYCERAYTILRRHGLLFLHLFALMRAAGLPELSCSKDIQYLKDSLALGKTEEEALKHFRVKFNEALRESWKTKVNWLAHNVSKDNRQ

[3] = molecular target: PI3-kinase p110-alpha/p85-alpha (Homo sapiens, UniProt P42336); test: Inhibition of N-terminal His6-tagged recombinant full length human p110alpha/untagged recombinant full length human p85alpha expressed in baculovirus infected Sf21 insect cells using PIP2 as substrate preincubated for 15 mins followed by substrate addition and measured after 1 hr by HTRF assay
PI3-kinase p110-alpha/p85-alpha, sequence (P27986 whole entry): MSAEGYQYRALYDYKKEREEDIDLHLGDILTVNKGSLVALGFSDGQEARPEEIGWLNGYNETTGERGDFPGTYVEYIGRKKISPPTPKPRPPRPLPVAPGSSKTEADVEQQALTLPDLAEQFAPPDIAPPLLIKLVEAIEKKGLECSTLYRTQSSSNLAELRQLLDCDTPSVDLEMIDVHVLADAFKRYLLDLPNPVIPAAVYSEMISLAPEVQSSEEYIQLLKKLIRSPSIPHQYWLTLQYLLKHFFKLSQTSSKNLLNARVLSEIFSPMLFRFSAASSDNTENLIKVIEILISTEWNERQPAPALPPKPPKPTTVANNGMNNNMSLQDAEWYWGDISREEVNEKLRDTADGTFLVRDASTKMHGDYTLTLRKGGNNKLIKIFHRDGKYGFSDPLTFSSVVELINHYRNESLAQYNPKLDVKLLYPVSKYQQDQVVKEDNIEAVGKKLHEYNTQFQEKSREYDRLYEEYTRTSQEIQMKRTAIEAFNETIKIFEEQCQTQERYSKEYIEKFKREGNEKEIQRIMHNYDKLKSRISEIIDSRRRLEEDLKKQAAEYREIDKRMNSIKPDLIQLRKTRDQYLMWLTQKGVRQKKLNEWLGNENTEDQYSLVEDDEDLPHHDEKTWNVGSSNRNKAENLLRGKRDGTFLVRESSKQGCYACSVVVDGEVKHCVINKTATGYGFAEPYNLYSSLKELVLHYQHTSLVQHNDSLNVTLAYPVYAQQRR
PI3-kinase p110-alpha/p85-alpha, sequence (P42336 whole entry): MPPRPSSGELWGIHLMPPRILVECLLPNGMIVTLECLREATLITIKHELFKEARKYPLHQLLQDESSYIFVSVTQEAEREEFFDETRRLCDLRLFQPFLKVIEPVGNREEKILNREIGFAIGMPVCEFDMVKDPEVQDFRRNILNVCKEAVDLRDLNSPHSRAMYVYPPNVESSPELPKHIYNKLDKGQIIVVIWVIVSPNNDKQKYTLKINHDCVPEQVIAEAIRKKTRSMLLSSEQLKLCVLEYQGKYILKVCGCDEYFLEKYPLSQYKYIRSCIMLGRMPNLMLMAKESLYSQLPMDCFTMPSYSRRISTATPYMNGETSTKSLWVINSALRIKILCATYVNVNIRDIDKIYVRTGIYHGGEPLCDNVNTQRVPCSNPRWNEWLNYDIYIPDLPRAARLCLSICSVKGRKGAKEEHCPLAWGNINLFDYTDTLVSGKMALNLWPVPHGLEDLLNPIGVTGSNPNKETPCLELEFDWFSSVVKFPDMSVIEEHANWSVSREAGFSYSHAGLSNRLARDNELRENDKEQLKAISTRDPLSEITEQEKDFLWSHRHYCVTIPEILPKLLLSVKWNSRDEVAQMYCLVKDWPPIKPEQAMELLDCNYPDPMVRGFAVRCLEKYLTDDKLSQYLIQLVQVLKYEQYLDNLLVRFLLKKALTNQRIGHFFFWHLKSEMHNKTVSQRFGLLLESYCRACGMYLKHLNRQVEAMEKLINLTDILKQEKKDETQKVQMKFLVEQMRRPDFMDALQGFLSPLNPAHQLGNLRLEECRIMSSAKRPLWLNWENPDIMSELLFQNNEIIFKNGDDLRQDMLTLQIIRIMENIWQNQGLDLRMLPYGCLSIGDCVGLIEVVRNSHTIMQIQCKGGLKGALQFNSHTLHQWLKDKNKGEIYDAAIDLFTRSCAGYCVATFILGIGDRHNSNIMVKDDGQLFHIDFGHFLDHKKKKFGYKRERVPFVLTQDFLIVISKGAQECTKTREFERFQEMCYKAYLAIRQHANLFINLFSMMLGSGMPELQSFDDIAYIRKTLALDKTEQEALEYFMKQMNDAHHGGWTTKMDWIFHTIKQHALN

[4] = molecular target: PI3-kinase p110-delta/p85-alpha (Homo sapiens, UniProt O00329); test: Inhibition of N-terminal His6-tagged recombinant full length human p110delta/untagged recombinant full length human p85alpha expressed in baculovirus infected Sf21 insect cells using PIP2 as substrate preincubated for 15 mins followed by substrate addition and measured after 1 hr by HTRF assay
PI3-kinase p110-delta/p85-alpha, sequence (P27986 whole entry, one chain of several, canonical isoform): as the sequence (P27986 whole entry) above

[5] = molecular target: T1, Phosphatidylinositol 4,5-bisphosphate 3-kinase catalytic subunit delta isoform; test: Inhibition of PI3Kdelta in human whole blood assessed as reduction in antihuman IgE antibody-stimulated CD63 expression preincubated for 30 mins followed by antihuman IgE antibody stimulation and measured after 20 mins by FACS analysis; format: tissue-based
[6] = Intrinsic clearance in Wistar Han rat at 0.05 mg/kg; format: ADME, organism-based; conditions: in vivo
[7] = Protein binding in human plasma; format: ADME, cell-free; conditions: read-out: PPB (converted)
[8] = Unbound volume of distribution in Wistar Han rat; format: ADME; conditions: in vivo
[9] = Volume of distribution in Wistar Han rat; format: ADME; conditions: in vivo
[10] = Protein binding in Wistar Han rat plasma; format: ADME, cell-free; conditions: read-out: PPB (converted)
[11] = Plasma clearance in Wistar Han rat at 0.05 mg/kg; format: ADME, organism-based
[12] = Half-life in Wistar Han rat; format: ADME; conditions: in vivo
[13] = molecular target: T1, Phosphatidylinositol 4,5-bisphosphate 3-kinase catalytic subunit delta isoform; test: Inhibition of PI3Kdelta in human whole blood assessed as reduction in anti-CD79b antibody-induced CD69 expression preincubated for 60 mins followed by anti-CD79b antibody stimulation and measured after 3 hrs by FACS analysis; format: tissue-based
[14] = Lipophilicity, log D of the compound; format: physicochemical; conditions: octanol/water
Phosphodiesterase 3 = Phosphodiesterase 3 (Homo sapiens, UniProt Q14432+Q13370); test: Inhibition of PDE3 (unknown origin); format: protein assay
[15] = molecular target: cAMP and cAMP-inhibited cGMP 3',5'-cyclic phosphodiesterase 10A (Homo sapiens, UniProt Q9Y233); test: Inhibition of PDE10 (unknown origin)
cAMP and cAMP-inhibited cGMP 3',5'-cyclic phosphodiesterase 10A, sequence (Q9Y233 whole entry): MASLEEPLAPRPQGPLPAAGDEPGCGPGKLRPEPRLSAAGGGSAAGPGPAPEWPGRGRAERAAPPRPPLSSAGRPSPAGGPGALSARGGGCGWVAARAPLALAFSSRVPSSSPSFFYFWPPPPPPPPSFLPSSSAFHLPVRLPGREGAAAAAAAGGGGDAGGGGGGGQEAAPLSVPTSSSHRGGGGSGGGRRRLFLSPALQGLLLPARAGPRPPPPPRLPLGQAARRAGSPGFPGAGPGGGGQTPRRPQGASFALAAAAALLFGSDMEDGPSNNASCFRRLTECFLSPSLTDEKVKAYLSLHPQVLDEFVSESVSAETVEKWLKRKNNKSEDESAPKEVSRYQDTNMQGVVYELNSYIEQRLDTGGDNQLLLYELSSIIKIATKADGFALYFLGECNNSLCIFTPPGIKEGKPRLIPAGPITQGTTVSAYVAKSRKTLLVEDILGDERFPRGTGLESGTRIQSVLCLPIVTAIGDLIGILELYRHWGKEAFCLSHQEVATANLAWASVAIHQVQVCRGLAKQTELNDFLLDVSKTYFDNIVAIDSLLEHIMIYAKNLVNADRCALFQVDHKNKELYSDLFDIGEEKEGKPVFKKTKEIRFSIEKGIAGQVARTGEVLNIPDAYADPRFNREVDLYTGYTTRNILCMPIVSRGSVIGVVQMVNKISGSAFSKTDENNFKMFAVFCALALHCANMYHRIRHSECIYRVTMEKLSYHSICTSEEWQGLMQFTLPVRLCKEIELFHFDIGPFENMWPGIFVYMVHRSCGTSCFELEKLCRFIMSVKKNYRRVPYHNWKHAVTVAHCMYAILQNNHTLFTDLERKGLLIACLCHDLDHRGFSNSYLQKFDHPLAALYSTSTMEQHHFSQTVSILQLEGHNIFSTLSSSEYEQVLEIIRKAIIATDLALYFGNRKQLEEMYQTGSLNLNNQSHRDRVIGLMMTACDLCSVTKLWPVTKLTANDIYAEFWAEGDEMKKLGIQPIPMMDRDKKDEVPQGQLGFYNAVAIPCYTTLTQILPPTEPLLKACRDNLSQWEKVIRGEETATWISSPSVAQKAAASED

Phosphodiesterase 4 = Phosphodiesterase 4 (Homo sapiens, UniProt P27815+Q08499+Q07343+Q08493); test: Inhibition of PDE4 (unknown origin); format: protein assay
Phosphodiesterase 7 = Phosphodiesterase 7 (Homo sapiens, UniProt Q13946+Q9NP56); test: Inhibition of PDE7 (unknown origin); format: protein assay
[16] = molecular target: cGMP-specific 3',5'-cyclic phosphodiesterase (Homo sapiens, UniProt O76074); test: Inhibition of PDE5 (unknown origin)
Phosphodiesterase 1 = Phosphodiesterase 1 (Homo sapiens, UniProt P54750+Q01064+Q14123); test: Inhibition of PDE1 (unknown origin); format: protein assay
[17] = molecular target: Dual 3',5'-cyclic-AMP and -GMP phosphodiesterase 11A (Homo sapiens, UniProt Q9HCR9); test: Inhibition of PDE11 (unknown origin)
Dual 3',5'-cyclic-AMP and -GMP phosphodiesterase 11A, sequence (Q9HCR9 whole entry): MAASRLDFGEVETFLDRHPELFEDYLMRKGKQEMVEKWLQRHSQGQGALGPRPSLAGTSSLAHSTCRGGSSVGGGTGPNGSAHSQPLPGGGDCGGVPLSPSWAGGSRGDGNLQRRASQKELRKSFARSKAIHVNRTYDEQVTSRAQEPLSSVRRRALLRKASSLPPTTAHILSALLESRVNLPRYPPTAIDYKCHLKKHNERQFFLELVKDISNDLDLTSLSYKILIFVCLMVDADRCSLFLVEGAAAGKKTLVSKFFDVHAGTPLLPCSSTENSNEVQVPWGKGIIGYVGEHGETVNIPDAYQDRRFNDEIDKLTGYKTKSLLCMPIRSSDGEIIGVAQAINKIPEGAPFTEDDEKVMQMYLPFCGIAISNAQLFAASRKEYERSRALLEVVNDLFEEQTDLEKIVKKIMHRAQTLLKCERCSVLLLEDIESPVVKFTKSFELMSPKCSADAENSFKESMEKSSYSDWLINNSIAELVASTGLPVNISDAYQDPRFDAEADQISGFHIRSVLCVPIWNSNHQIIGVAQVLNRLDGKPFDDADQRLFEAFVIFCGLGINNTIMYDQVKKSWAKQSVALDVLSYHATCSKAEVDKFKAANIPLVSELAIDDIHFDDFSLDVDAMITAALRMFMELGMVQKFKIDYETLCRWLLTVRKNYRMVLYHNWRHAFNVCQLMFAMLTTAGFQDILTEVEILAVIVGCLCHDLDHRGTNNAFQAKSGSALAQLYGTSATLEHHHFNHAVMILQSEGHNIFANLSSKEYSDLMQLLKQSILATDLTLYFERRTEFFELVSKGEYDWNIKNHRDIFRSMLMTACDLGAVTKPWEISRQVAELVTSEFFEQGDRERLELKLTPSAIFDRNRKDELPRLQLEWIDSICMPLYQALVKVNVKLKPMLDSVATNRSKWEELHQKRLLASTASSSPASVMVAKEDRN

Phosphodiesterase 6 = test: Inhibition of PDE6 (unknown origin); format: protein assay, Homo sapiens
[18] = molecular target: High affinity cAMP-specific and IBMX-insensitive 3',5'-cyclic phosphodiesterase 8A (Homo sapiens, UniProt O60658); test: Inhibition of PDE8 (unknown origin)
[19] = molecular target: High affinity cGMP-specific 3',5'-cyclic phosphodiesterase 9A (Homo sapiens, UniProt O76083); test: Inhibition of PDE9 (unknown origin)
[20] = molecular target: cGMP-dependent 3',5'-cyclic phosphodiesterase (Homo sapiens, UniProt O00408); test: Inhibition of PDE2 (unknown origin)
cGMP-dependent 3',5'-cyclic phosphodiesterase, sequence (O00408 whole entry): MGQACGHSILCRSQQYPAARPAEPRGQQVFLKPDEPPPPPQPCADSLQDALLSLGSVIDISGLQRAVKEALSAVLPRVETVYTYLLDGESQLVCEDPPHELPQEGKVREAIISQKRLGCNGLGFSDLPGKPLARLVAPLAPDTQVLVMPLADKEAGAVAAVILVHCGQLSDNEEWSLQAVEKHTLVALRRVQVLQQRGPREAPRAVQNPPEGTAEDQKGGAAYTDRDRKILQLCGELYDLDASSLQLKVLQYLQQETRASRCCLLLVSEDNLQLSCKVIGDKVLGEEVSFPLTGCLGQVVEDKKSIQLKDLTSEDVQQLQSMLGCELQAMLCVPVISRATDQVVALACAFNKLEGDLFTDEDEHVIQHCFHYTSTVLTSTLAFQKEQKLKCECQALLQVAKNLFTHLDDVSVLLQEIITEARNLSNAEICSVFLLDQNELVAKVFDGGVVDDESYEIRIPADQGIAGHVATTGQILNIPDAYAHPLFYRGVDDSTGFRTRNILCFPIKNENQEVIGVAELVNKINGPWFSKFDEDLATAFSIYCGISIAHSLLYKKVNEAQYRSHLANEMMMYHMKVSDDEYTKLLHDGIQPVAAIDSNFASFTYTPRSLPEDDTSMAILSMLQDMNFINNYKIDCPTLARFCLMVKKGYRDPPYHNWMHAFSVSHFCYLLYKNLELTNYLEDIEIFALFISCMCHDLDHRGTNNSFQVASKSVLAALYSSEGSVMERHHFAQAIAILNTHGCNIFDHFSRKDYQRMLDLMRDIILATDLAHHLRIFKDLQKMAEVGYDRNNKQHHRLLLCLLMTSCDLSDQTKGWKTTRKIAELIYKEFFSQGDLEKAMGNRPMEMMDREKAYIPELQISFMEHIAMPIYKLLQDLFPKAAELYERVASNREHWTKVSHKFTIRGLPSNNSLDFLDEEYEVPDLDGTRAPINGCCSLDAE

[21] = Plasma clearance in Wistar Han rat at 0.5 mg/kg, iv or 1 mg/kg, po; format: ADME, organism-based

SMILES	IC50 [1] [µM]	IC50 [2] [nM]	IC50 [3] [nM]	IC50 [4] [nM]	other results
CCC(=O)N1CC(Nc2ncnc3c2nc(-c2cnn(CC)c2C)n3C)C1	> 10	2210	904	–	Ratio IC50 (Homo sapiens): 16
CC[C@H](Nc1ncnc2c1nc(-c1cnn(CC)c1C)n2C)C(=O)N(C)C	> 10	1470	1070	34	–
CCn1ncc(-c2nc3c(NC4CN(C(=O)C5CCOCC5)C4)ncnc3n2C)c1C	> 10	2770	453	–	Ratio IC50 (Homo sapiens): 28
CCC(=O)N1CCC(Nc2ncnc3c2nc(-c2cnn(CC)c2C)n3C)CC1	> 10	–	1190	800	–
CCn1ncc(-c2nc3c(N[C@H]4CC[C@@H](C(=O)N5CCOCC5)C4)ncnc3n2C)c1C	5.52	153	90	11	–
CCC(=O)N1CC[C@@H](Nc2ncnc3c2nc(-c2cnn(CC)c2C)n3C)C1	> 1	187	540	26	–
CCn1ncc(-c2nc3c(NC4CC(=O)N(CC(C)C)C4)ncnc3n2C)c1C (stereo not given)	2.25	45	121	4.3	–
CCn1ncc(-c2nc3c(N[C@@H](C)C(=O)N4CCOCC4)ncnc3n2C)c1C	6.55	719	406	24	–
CCn1ncc(-c2nc3c(Oc4csc(C(=O)N5CCOCC5)c4)ncnc3n2C)c1C	4.5	970	2950	68	–
CCCN1CC[C@H](Nc2ncnc3c2nc(-c2cnn(CC)c2C)n3C)C1	2.56	1290	1310	–	–
CC[C@H](Nc1ncnc2c1nc(-c1cnn(CC)c1C)n2C)C(=O)N1CCOCC1	–	–	274	–	–
CCn1ncc(-c2nc3c(N[C@H](C)C(=O)N4CCOCC4)ncnc3n2C)c1C	> 10	–	> 10000	1080	–
CCn1ncc(-c2nc3c(NC4CCN(CC(C)C)C4=O)ncnc3n2C)c1C (racemic)	7.15	8330	1780	1350	–
CCC(=O)N1CCC[C@H](Nc2ncnc3c2nc(-c2cnn(CC)c2C)n3C)C1	3.91	309	338	–	–
CCn1ncc(-c2nc3c(S[C@H]4CCN(C(=O)C5CCOCC5)C4)ncnc3n2C)c1C	1.4	572	597	15	–
CCn1ncc(-c2nc3c(N[C@H]4CCN(C(=O)C5CC5)C4)ncnc3n2C)c1C	1.59	13	35	0.9	IC50 [5]: 330 nM; CL [6]: 410 mL/min/kg; fraction unbound [7]: 0.45; Vdu [8]: 4 L/kg; Vd [9]: 1.1 L/kg; fraction unbound [10]: 0.28; clearance [11]: 49 mL/min/kg; half-life [12]: 18 min; IC50 [13]: 35 nM; logD [14]: 1
CCC(=O)N1CC[C@H](Nc2ncnc3c2nc(-c2cnn(CC)c2C)n3C)C1	7.25	24	94	1.6	IC50 (Phosphodiesterase 3): > 20 µM; IC50 [15]: > 20 µM; IC50 (Phosphodiesterase 4): 8.4 µM; CL [6]: 370 mL/min/kg; IC50 (Phosphodiesterase 7): > 20 µM; IC50 [16]: > 20 µM; IC50 (Phosphodiesterase 1): > 20 µM; Vdu [8]: 4 L/kg; Vd [9]: 1.8 L/kg; IC50 [17]: > 20 µM; fraction unbound [10]: 0.49; clearance [11]: 58 mL/min/kg; IC50 (Phosphodiesterase 6): > 20 µM; half-life [12]: 24 min; IC50 [18]: > 20 µM; IC50 [19]: > 20 µM; IC50 [20]: > 20 µM; logD [14]: 0.8
CCn1ncc(-c2nc3c(CC4CCN(C(=O)C5CCOCC5)C4)ncnc3n2C)c1C (racemic)	> 10	8330	> 10000	294	–
CCn1ncc(-c2nc3c(N[C@H]4CCN(C(=O)C5CCOCC5)C4)ncnc3n2C)c1C	9.19	16	35	0.5	IC50 (Phosphodiesterase 3): > 20 µM; IC50 [15]: > 20 µM; IC50 (Phosphodiesterase 4): > 20 µM; IC50 (Phosphodiesterase 7): > 20 µM; IC50 [16]: > 20 µM; clearance [21]: 95 mL/min/kg; IC50 (Phosphodiesterase 1): > 20 µM; Vdu [8]: 3 L/kg; Vd [9]: 1.7 L/kg; IC50 [17]: > 20 µM; fraction unbound [10]: 0.52; clearance [11]: 95 mL/min/kg; IC50 (Phosphodiesterase 6): > 20 µM; half-life [12]: 12 min; IC50 [18]: > 20 µM; IC50 [19]: > 20 µM; IC50 [20]: > 20 µM; logD [14]: 0.8
